Source: US9808003B2, “Herbicidally active 2-(substituted-phenyl)-cyclopentane-1,3-dione compounds and derivatives thereof” (Syngenta Limited, priority 2013, dated 2017)
Read-outs that look alike come from different tables or passages of the source.

Tests used:
Assay type in all cases: in vivo
[1] = system: Alopecurus myosuroides (ALOMY); assay: Test 1A glasshouse assay, post-emergence herbicidal activity; conditions: Alopecurus myosuroides, 312 h, read-out: Post-emergence Herbicidal Activity (% Phytotoxicity) ALOMY
How it was run: (§1)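 Read-out is visual percent phytotoxicity 13 days post-spray, 100% meaning total plant damage and 0% none. Seedlings were treated after 8 days' glasshouse cultivation with an aqueous spray of active ingredient in acetone/water 50:50 plus 0.5% Tween 20.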

Avena fatua (AVEFA) [2] = assay: as above; conditions: Avena fatua, 312 h, read-out: Post-emergence Herbicidal Activity (% Phytotoxicity) AVEFA
How it was run: as §1

[3] = system: Echinochloa crus-galli (ECHCG); assay: as above; conditions: Echinochloa crus-galli, 312 h, read-out: Post-emergence Herbicidal Activity (% Phytotoxicity) ECHCG
How it was run: as §1

Lolium perenne (LOLPE) [4] = assay: as above; conditions: Lolium perenne, 312 h, read-out: Post-emergence Herbicidal Activity (% Phytotoxicity) LOLPE
How it was run: as §1

[5] = system: Alopecurus myosuroides (ALOMY); assay: Test 1A glasshouse assay, pre-emergence herbicidal activity; conditions: 312 h, read-out: Pre-emergence herbicidal activity (% phytotoxicity) ALOMY
Protocol: (§2) Seeds of a variety of test species were sown in standard soil in pots. After cultivation for one day (pre-emergence) or after 8 days cultivation (post-emergence) under controlled conditions in a glasshouse (at 24/16° C., day/night; 14 hours light; 65% humidity), the plants were sprayed with an aqueous spray solution derived from the formulation of the technical active ingredient in acetone/water (50:50) solution containing 0.5% Tween 20 (polyoxyethelyene sorbitan monolaurate, CAS RN 9005-64-5). The test plants were then grown under controlled conditions in a glasshouse (at 24/16° C., day/night; 14 hours light; 65% humidity) and watered twice daily. 13 days after application of the test herbicide, for pre- and post-emergence, the test was evaluated visually for percentage phytotoxicity to the plant (where 100%=total damage to plant; 0%=no damage to plant).
(§3) Test plants: Lolium perenne (LOLPE), Alopecurus myosuroides (ALOMY), Echinochloa crus-galli (ECHCG), and Avena fatua (AVEFA); these are all grassy monocotyledonous weeds.

Avena fatua (AVEFA) [6] = assay: as above; conditions: 312 h, read-out: Pre-emergence herbicidal activity (% phytotoxicity) AVEFA
Protocol: as §2, §3

[7] = system: Echinochloa crus-galli (ECHCG); assay: as above; conditions: 312 h, read-out: Pre-emergence herbicidal activity (% phytotoxicity) ECHCG
Protocol: as §2, §3

Lolium perenne (LOLPE) [8] = assay: as above; conditions: 312 h, read-out: Pre-emergence herbicidal activity (% phytotoxicity) LOLPE
Protocol: as §2, §3

[9] = system: Alopecurus myosuroides (ALOMY); assay: Test 1B glasshouse assay, post-emergence herbicidal activity against grassy weeds; conditions: 14 DAA
How it was run: (§4)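 Unformulated compound was dissolved as a 50 g/L emulsifiable IF50, then diluted in 0.5% v/v Adigor to spray plants 14 days after sowing. Usual rates were 60 g/ha with or without, or 90 and 120 g/ha with, 50 g/ha cloquintocet-mexyl. Visual % phytotoxicity at 14 DAA, mean of two replicates.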

Avena fatua (AVEFA) [10] = assay: as above; conditions: 14 DAA
How it was run: as §4

[11] = system: Lolium multiflorum (LOLMU); assay: as above; conditions: 14 DAA
How it was run: as §4

Poa annua (POAAN) = assay: as above; conditions: 14 DAA
How it was run: as §4

Setaria viridis (SETVI) = assay: as above; conditions: 14 DAA
How it was run: as §4

[12] = system: Spring Barley “Harrington”; assay: Test 1B glasshouse assay, post-emergence herbicidal activity against cereal crops; conditions: 14 DAA
How it was run: (§5)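 Visual percentage damage (100% = total, 0% = none) read 14 days after application, averaged over two replicates. Plants grown 14 days at 22/16 °C day/night before post-emergence spraying of unformulated compound (IF50/acetone, 0.5% v/v Adigor). Rates usually 60–120 g/ha; cloquintocet-mexyl 50 g/ha co-applied where stated.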

Spring Wheat “Teal” = assay: as above; conditions: 14 DAA
How it was run: as §5

Winter Barley “Suzuka” = assay: as above; conditions: 14 DAA
How it was run: as §5

Winter Wheat “Hereward” = assay: as above; conditions: 14 DAA
How it was run: as §5

[13] = 60 g/ha herbicide, 0 g/ha cloquintocet-mexyl
[14] = 60 g/ha herbicide, 50 g/ha cloquintocet-mexyl
[15] = application rate 250 g/ha, 13 days after application, visual (100%=total damage; 0%=no damage)
[16] = 250 g/ha, 13 days after application
[17] = 30 g/ha herbicide, 50 g/ha cloquintocet-mexyl

Row | Structure (SMILES) | Post-emergence herbicidal activity, percentage phytotoxicity, ALOMY [9, 13] | Post-emergence herbicidal activity, percentage phytotoxicity, ALOMY [9, 14] | Post-emergence herbicidal activity, percentage phytotoxicity, AVEFA (Avena fatua (AVEFA) [10]; [13]) | Post-emergence herbicidal activity, percentage phytotoxicity, AVEFA (Avena fatua (AVEFA) [10]; [14]) | Post-emergence herbicidal activity, percentage phytotoxicity, LOLMU [11, 13] | Post-emergence herbicidal activity, percentage phytotoxicity, LOLMU [11, 14] | Post-emergence herbicidal activity, percentage phytotoxicity, POAAN (Poa annua (POAAN); [13]) | Post-emergence herbicidal activity, percentage phytotoxicity, POAAN (Poa annua (POAAN); [14]) | Post-emergence herbicidal activity, percentage phytotoxicity, SETVI (Setaria viridis (SETVI); [13]) | Post-emergence herbicidal activity, percentage phytotoxicity, SETVI (Setaria viridis (SETVI); [14]) | Post-emergence herbicidal activity against cereal crops, percentage phytotoxicity, Spring Barley “Harrington” [12, 13] | Post-emergence herbicidal activity against cereal crops, percentage phytotoxicity, Spring Barley “Harrington” [12, 14] | Post-emergence herbicidal activity against cereal crops, percentage phytotoxicity, Spring Wheat “Teal” (Spring Wheat “Teal”; [13]) | Post-emergence herbicidal activity against cereal crops, percentage phytotoxicity, Spring Wheat “Teal” (Spring Wheat “Teal”; [14]) | Post-emergence herbicidal activity against cereal crops, percentage phytotoxicity, Winter Barley “Suzuka” (Winter Barley “Suzuka”; [13]) | Post-emergence herbicidal activity against cereal crops, percentage phytotoxicity, Winter Barley “Suzuka” (Winter Barley “Suzuka”; [14]) | Post-emergence herbicidal activity against cereal crops, percentage phytotoxicity, Winter Wheat “Hereward” (Winter Wheat “Hereward”; [13]) | Post-emergence herbicidal activity against cereal crops, percentage phytotoxicity, Winter Wheat “Hereward” (Winter Wheat “Hereward”; [14]) | pest or weed control at 250 g/ha [1, 15] | pest or weed control at 250 g/ha (Avena fatua (AVEFA) [2]; [15]) | further results
1 | Cc1cc(-n2cc(Cl)cn2)cc(C)c1C1C(=O)CC(CCNC(=O)c2ccccn2)C1=O (racemic) [Compound A34, N-[2-[3-[4-(4-chloropyrazol-1-yl)-2,6-dimethyl-phenyl]-2,4-dioxo-cyclopentyl]ethyl]pyridine-2-carboxamide] | 65% | 73% | 100% | 100% | 83% | 90% | 78% | 75% | 80% | 85% | 83% | 33% | 43% | 10% | 83% | 38% | 20% | 5% |  |  | pest or weed control at 250 g/ha [1]: 90%; pest or weed control at 250 g/ha (Avena fatua (AVEFA) [2]): 100%; pest or weed control at 250 g/ha [3]: 100%; pest or weed control at 250 g/ha (Lolium perenne (LOLPE) [4]): 100%; inhibition at 250 g/ha [5]: 90%; inhibition at 250 g/ha (Avena fatua (AVEFA) [6]): 100%; inhibition at 250 g/ha [7]: 100%; inhibition at 250 g/ha (Lolium perenne (LOLPE) [8]): 100%
2 | CCc1cc(-n2cc(Cl)cn2)cc(C)c1C1C(=O)CC(CCNC(=O)c2ccccn2)C1=O (stereo not drawn) [Compound A87, N-[2-[3-[4-(4-chloropyrazol-1-yl)-2-ethyl-6-methyl-phenyl]-2,4-dioxo-cyclopentyl]ethyl]pyridine-2-carboxamide] | 97% | 95% | 100% | 100% | 100% | 100% | 83% | 83% | 93% | 95% | 73% | 60% | 48% | 38% | 83% | 60% | 43% | 33% | 100% | 100% | pest or weed control at 250 g/ha [3, 15]: 100%; pest or weed control at 250 g/ha (Lolium perenne (LOLPE) [4]; [15]): 100%; inhibition at 250 g/ha [5, 16]: 100%; inhibition at 250 g/ha (Avena fatua (AVEFA) [6]; [16]): 90%; inhibition at 250 g/ha [7, 16]: 100%; inhibition at 250 g/ha (Lolium perenne (LOLPE) [8]; [16]): 100%; Post-emergence herbicidal activity, percentage phytotoxicity, ALOMY [9, 17]: 70%; Post-emergence herbicidal activity, percentage phytotoxicity, AVEFA (Avena fatua (AVEFA) [10]; [17]): 100%; Post-emergence herbicidal activity, percentage phytotoxicity, LOLMU [11, 17]: 100%; Post-emergence herbicidal activity, percentage phytotoxicity, POAAN (Poa annua (POAAN); [17]): 75%; Post-emergence herbicidal activity, percentage phytotoxicity, SETVI (Setaria viridis (SETVI); [17]): 73%; Post-emergence herbicidal activity against cereal crops, percentage phytotoxicity, Spring Barley “Harrington” [12, 17]: 0%; Post-emergence herbicidal activity against cereal crops, percentage phytotoxicity, Spring Wheat “Teal” (Spring Wheat “Teal”; [17]): 18%; Post-emergence herbicidal activity against cereal crops, percentage phytotoxicity, Winter Barley “Suzuka” (Winter Barley “Suzuka”; [17]): 3%; Post-emergence herbicidal activity against cereal crops, percentage phytotoxicity, Winter Wheat “Hereward” (Winter Wheat “Hereward”; [17]): 23%
3 | Cc1cc(C)c(C2C(=O)CC(CCNC(=O)c3c(Cl)nn(C)c3Cl)C2=O)c(C)c1 (stereo not drawn) [Compound A159] |  |  |  |  |  |  |  |  |  |  |  |  |  |  |  |  |  |  | 100% | 90% | pest or weed control at 250 g/ha [3, 15]: 90%; pest or weed control at 250 g/ha (Lolium perenne (LOLPE) [4]; [15]): 100%; inhibition at 250 g/ha [5, 16]: 90%; inhibition at 250 g/ha (Avena fatua (AVEFA) [6]; [16]): 80%; inhibition at 250 g/ha [7, 16]: 100%; inhibition at 250 g/ha (Lolium perenne (LOLPE) [8]; [16]): 100%
